Laboratory results taken from ChEMBL document CHEMBL4014283, “Structural insights of SmKDAC8 inhibitors: Targeting Schistosoma epigenetics through a combined structure-based 3D QSAR, in vitro and synthesis strategy” (Bioorg Med Chem, 2017).
Activity calls are given as the source filed them. No cut-off for these calls is given here.

Tests used:
Histone deacetylase 8 = biological target: T1, Histone deacetylase 8 (Schistosoma mansoni, UniProt A5H660); assay: Inhibition of Schistosoma mansoni KDAC8 using (FAM)-labeled peptide as substrate after 60 mins by microfluidic assay
T1 sequence (A5H660 whole entry): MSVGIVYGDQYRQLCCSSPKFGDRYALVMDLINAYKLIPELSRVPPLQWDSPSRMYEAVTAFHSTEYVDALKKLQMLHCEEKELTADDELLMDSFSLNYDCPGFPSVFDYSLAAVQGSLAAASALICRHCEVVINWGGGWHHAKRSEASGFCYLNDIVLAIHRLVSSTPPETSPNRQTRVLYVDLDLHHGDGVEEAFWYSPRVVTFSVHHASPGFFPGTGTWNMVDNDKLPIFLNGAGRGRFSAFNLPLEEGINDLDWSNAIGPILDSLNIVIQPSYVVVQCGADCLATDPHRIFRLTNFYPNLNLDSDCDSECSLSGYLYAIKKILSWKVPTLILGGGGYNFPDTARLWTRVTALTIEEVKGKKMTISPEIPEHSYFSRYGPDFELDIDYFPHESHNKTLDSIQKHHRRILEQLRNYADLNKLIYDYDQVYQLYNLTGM

[1] = biological target: T2, Histone deacetylase 8 (Schistosoma mansoni) (UniProt A5H660); assay: Inhibition of Schistosoma mansoni KDAC8 at 30 uM using (FAM)-labeled peptide as substrate after 60 mins by microfluidic assay
T2 sequence (whole entry): T1 sequence (A5H660 whole entry)

How did the IC50 (Histone deacetylase 8; read-out: pIC50 (converted)) turn out when `O=C(NO)c1cccc(NN(Cc2ccccc2)Cc2ccccc2)c1` was run?
The IC50 was 9.33 µM.

With `O=C(O)CCCCN1C(=O)[C@H](Cc2cncn2C(c2ccccc2)(c2ccccc2)c2ccccc2)N=C(c2ccccc2)c2ccccc21` as the compound, how does the inhibition [1] read?
The inhibition was 0%.

And the IC50 (Histone deacetylase 8; read-out: IC50)?
Its IC50 is over 30 µM.

How did the inhibition [1] turn out when `O=C(O)CC[C@@H]1N=C(c2ccccc2)c2ccccc2NC1=O` was run?
The inhibition was 0%.

What about the IC50 (Histone deacetylase 8; read-out: IC50) of the same compound?
The IC50 was over 30 µM.

With `CC(C)(C)OC(=O)C[C@@H]1N=C(c2ccccc2)c2ccccc2NC1=O` as the compound, how does the inhibition [1] read?
The inhibition was 0%.

What about the IC50 (Histone deacetylase 8; read-out: IC50) of the same compound?
The IC50 was over 30 µM.

How did the inhibition [1] turn out when `CC(C)C[C@@H]1N=C(c2ccccc2)c2ccccc2N(CCCCC(=O)NO)C1=O` was run?
The inhibition was 23.1%.

What about the IC50 (Histone deacetylase 8; read-out: IC50) of the same compound?
Its IC50 is over 30 µM.

`C[C@@H](O)[C@@H]1N=C(c2ccccc2)c2ccccc2N(CCCCC(=O)NO)C1=O` was tested. Which inhibition [1] did it give?
The inhibition was 0.91%.

What about the IC50 (Histone deacetylase 8; read-out: IC50) of the same compound?
The IC50 was over 30 µM.

For `O=C1CN=C(c2ccccc2)c2ccccc2N1` [RO-052921], which inhibition [1] is on record?
Its inhibition is 9.5%.

And the IC50 (Histone deacetylase 8; read-out: IC50)?
The IC50 was over 30 µM.

With `CCCCCCCC(=O)SCC/C=C/[C@@H]1CC(=O)NCc2nc(cs2)C2=N[C@@](C)(CS2)C(=O)N[C@@H](C(C)C)C(=O)O1` [LARGAZOLE] as the compound, how does the inhibition [1] read?
The inhibition was 4%.

And the IC50 (Histone deacetylase 8; read-out: IC50)?
Its IC50 is over 30 µM.

For `CC(C)(C)OC(=O)n1cc(C[C@@H]2N=C(c3ccccc3)c3ccccc3NC2=O)c2ccccc21`, which inhibition [1] is on record?
The inhibition was 11.9%.

What about the IC50 (Histone deacetylase 8; read-out: IC50) of the same compound?
Its IC50 is over 30 µM.

Which inhibition [1] does the source give for `CC(C)(C)Oc1ccc(C[C@@H]2N=C(c3ccccc3)c3ccccc3N(CCCCC(=O)NO)C2=O)cc1` here?
Its inhibition is 74%.

What about the IC50 (Histone deacetylase 8; read-out: IC50) of the same compound?
Its IC50 is 10.3 µM.

`Cc1[nH]c2ccccc2c1CCNCc1ccc(/C=C/C(=O)NO)cc1` [PANOBINOSTAT] was tested. Which IC50 (Histone deacetylase 8; read-out: IC50) did it give?
The IC50 was 0.45 µM.

Which inhibition [1] does the source give for `COC(=O)CCCCN1C(=O)[C@H](CC(C)C)N=C(c2ccccc2)c2ccccc21` here?
The inhibition was 0%.

What about the IC50 (Histone deacetylase 8; read-out: IC50) of the same compound?
The IC50 was over 30 µM.

For `O=C(O)CCCCN1C(=O)[C@H](CCC(=O)O)N=C(c2ccccc2)c2ccccc21`, which inhibition [1] is on record?
Its inhibition is 0%.

And the IC50 (Histone deacetylase 8; read-out: IC50)?
Its IC50 is over 30 µM.

`O=C(CCCCN1C(=O)[C@H](CO)N=C(c2ccccc2)c2ccccc21)NO` was tested. Which inhibition [1] did it give?
Its inhibition is 0.46%.

And the IC50 (Histone deacetylase 8; read-out: IC50)?
Its IC50 is over 30 µM.

Which results are given for `Nc1ccccc1NC(=O)c1ccc(CNC(=O)OCc2cccnc2)cc1` [ENTINOSTAT]?
inhibition [1]: inactive; IC50 (Histone deacetylase 8; read-out: IC50): > 30 µM

What does the source list for `CC(C)(C)Oc1ccc(C[C@@H]2N=C(c3ccccc3)c3ccccc3N(CCCCC(=O)O)C2=O)cc1`?
inhibition [1]: 0%; IC50 (Histone deacetylase 8; read-out: IC50): > 30 µM

Which results are given for `O=C(CCCCN1C(=O)[C@H](Cc2cc3ccccc3[nH]2)N=C(c2ccccc2)c2ccccc21)NO`?
inhibition [1]: 19.7%; IC50 (Histone deacetylase 8; read-out: IC50): > 30 µM

What does the source list for `COC(=O)CCCCN1C(=O)[C@H](Cc2ccc(OC(C)(C)C)cc2)N=C(c2ccccc2)c2ccccc21`?
inhibition [1]: 0%; IC50 (Histone deacetylase 8; read-out: IC50): > 30 µM

`CSCC[C@@H]1N=C(c2ccccc2)c2ccccc2NC1=O` was tested. Which inhibition [1] did it give?
The inhibition was 0%.

And the IC50 (Histone deacetylase 8; read-out: IC50)?
Its IC50 is over 30 µM.

With `O=C(CCCCN1C(=O)[C@H](Cc2ccccc2)N=C(c2ccccc2)c2ccccc21)NO` as the compound, how does the inhibition [1] read?
Its inhibition is 14.4%.

What about the IC50 (Histone deacetylase 8; read-out: IC50) of the same compound?
Its IC50 is over 30 µM.

`COC(=O)CCCCN1C(=O)[C@H](Cc2cncn2C(c2ccccc2)(c2ccccc2)c2ccccc2)N=C(c2ccccc2)c2ccccc21` was tested. Which inhibition [1] did it give?
Its inhibition is 2.5%.

And the IC50 (Histone deacetylase 8; read-out: IC50)?
Its IC50 is over 30 µM.

For `CC(C)[C@@H]1N=C(c2ccccc2)c2ccccc2N(CCCCC(=O)O)C1=O`, which inhibition [1] is on record?
Its inhibition is 0%.

What about the IC50 (Histone deacetylase 8; read-out: IC50) of the same compound?
The IC50 was over 30 µM.

What does the source list for `CC(C)(C)OC(=O)CC[C@H]1N=C(c2ccccc2)c2ccccc2NC1=O`?
inhibition [1]: 12.3%; IC50 (Histone deacetylase 8; read-out: IC50): > 30 µM

What does the source list for `O=C(O)C[C@@H]1N=C(c2ccccc2)c2ccccc2N(CCCCC(=O)NO)C1=O`?
inhibition [1]: 12.4%; IC50 (Histone deacetylase 8; read-out: IC50): > 30 µM

With `O=C(CCCCCC(=O)N/N=C/c1ccc(-c2ccccc2)cc1)NO` as the compound, how does the IC50 (Histone deacetylase 8; read-out: pIC50 (converted)) read?
The IC50 was 0.891 µM.

What does the source list for `CC(C)(C)OC(=O)C[C@@H]1N=C(c2ccccc2)c2ccccc2N(CCCCC(=O)NO)C1=O`?
inhibition [1]: 38.8%; IC50 (Histone deacetylase 8; read-out: IC50): > 30 µM

With `O=C(NO)c1sc2ccccc2c1Cl` as the compound, how does the IC50 (Histone deacetylase 8; read-out: pIC50 (converted)) read?
The IC50 was 4.37 µM.

With `CCC(=O)CCCCC[C@@H]1NC(=O)C2CCCCN2C(=O)[C@H](C(C)CC)NC(=O)[C@H](Cc2cn(OC)c3ccccc23)NC1=O` (stereo partly specified) as the compound, how does the IC50 (Histone deacetylase 8; read-out: IC50) read?
The IC50 was 28.8 µM.

`CN(C)c1ccc(C(=O)NCC2CCC(C(=O)NO)CC2)cc1` (stereo unspecified) was tested. Which IC50 (Histone deacetylase 8; read-out: pIC50 (converted)) did it give?
The IC50 was 12 µM.

With `CC(/C=C/C(=O)NO)=C\[C@@H](C)C(=O)c1ccc(N(C)C)cc1` [TRICHOSTATIN] as the compound, how does the IC50 (Histone deacetylase 8; read-out: IC50) read?
The IC50 was 3.62 µM.

How did the IC50 (Histone deacetylase 8; read-out: pIC50 (converted)) turn out when `CN(C)c1ccc(C(=O)NCc2ccc(C(=O)NO)cc2)cc1` was run?
The IC50 was 2.88 µM.

With `O=C(NO)C1CCN(S(=O)(=O)c2ccc3c(c2)CCC3)CC1` as the compound, how does the IC50 (Histone deacetylase 8; read-out: pIC50 (converted)) read?
The IC50 was 3.02 µM.

`N[C@H](Cc1ccc(Cl)cc1Cl)C(=O)N1Cc2ccccc2C1` was tested. Which IC50 (Histone deacetylase 8; read-out: IC50) did it give?
The IC50 was 29.1 µM.

How did the pIC50 (Histone deacetylase 8) turn out when `COc1ccc(Cn2ccc3ccc(C(=O)NO)cc32)cc1` was run?
The pIC50 was 1.03 to 6.36.

How did the IC50 (Histone deacetylase 8; read-out: pIC50 (converted)) turn out when `C[C@H]1Sc2ccc(C(=O)NO)cc2NC1=O` was run?
Its IC50 is 1.48 µM.

Which IC50 (Histone deacetylase 8; read-out: pIC50 (converted)) does the source give for `CN(C)c1ccc(C(=O)NCCCCCCC(=O)NO)cc1` here?
The IC50 was 3.16 µM.

Which IC50 (Histone deacetylase 8; read-out: pIC50 (converted)) does the source give for `Cn1cc(C2=C(c3cn(CCCCCC(=O)NO)c4ccccc34)C(=O)NC2=O)c2ccccc21` here?
Its IC50 is 1.41 µM.

For `CN1CCc2c(c3ccccc3n2Cc2ccc(C(=O)NO)cc2)C1` [TUBASTATIN A], which IC50 (Histone deacetylase 8; read-out: pIC50 (converted)) is on record?
The IC50 was 1.48 µM.
